Tests used:
[1] = target: T1, Arachidonate 5-lipoxygenase-activating protein (Homo sapiens, UniProt P20292); assay: Displacement of [125I]L-691,831 from 5-lipoxygenase-activating protein in human polymorphonuclear cells
T1 sequence (P20292 whole entry): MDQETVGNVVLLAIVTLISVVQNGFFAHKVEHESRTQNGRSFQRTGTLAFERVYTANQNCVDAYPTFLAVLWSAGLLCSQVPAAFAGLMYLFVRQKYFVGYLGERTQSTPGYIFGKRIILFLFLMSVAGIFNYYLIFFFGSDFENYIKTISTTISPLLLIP

[2] = target: T1, Arachidonate 5-lipoxygenase-activating protein; assay: Inhibition of 5-lipoxygenase-activating protein in human polymorphonuclear cells assessed as inhibition of calcium ionophore-induced LTB4 production in presence of human whole blood; type: tissue-based
[3] = Clearance in Sprague-Dawley rat at 1 mg/kg, iv and 2 mg/kg, po; type: ADME, organism-based; conditions: in vivo
[4] = Volume of distribution in Sprague-Dawley rat at 1 mg/kg, iv and 2 mg/kg, po; type: ADME, organism-based; conditions: in vivo
Rattus norvegicus = assay: Dose normalised AUC in Sprague-Dawley rat at 1 mg/kg, iv; type: ADME, organism-based; set-up: dose 1 mg/kg, route intravenous; conditions: in vivo
[5] = Cmax in Sprague-Dawley rat at 1 mg/kg, iv and 2 mg/kg, po; type: ADME, organism-based; conditions: in vivo
[6] = Half life in Sprague-Dawley rat at 1 mg/kg, iv and 2 mg/kg, po; type: ADME, organism-based; conditions: in vivo
[7] = Oral bioavailability in Sprague-Dawley rat at 2 mg/kg; type: ADME, organism-based; conditions: in vivo

| IC50 [1] | IC50 [2] | other results | SMILES |
| --- | --- | --- | --- |
| 7.4 nM | > 8600 nM |  | COC(=O)c1ccc(OCc2ccc3ccccc3n2)cc1[C@]1(c2cccc(C(F)(F)F)c2)C[C@H]2CC[C@H]1C2 (racemic) |
| 7.1 nM | 1730 nM |  | O=C(c1ccc(OCc2ccc3ccccc3n2)cc1[C@]1(c2ccccc2)C[C@H]2CC[C@H]1C2)N1CCCC1 (racemic) |
| 2.8 nM | 313 nM |  | Cn1nnc(-c2ccc(OCc3ccc4ccccc4n3)cc2[C@]2(c3ccccc3)C[C@H]3CC[C@H]2C3)n1 (racemic) |
| 1.7 nM | 149 nM |  | CC(C)n1nnc(-c2ccc(OCc3ccc4ccccc4n3)cc2[C@]2(c3ccccc3)C[C@H]3CC[C@H]2C3)n1 (racemic) |
| 3.4 nM | 1320 nM |  | COC(=O)c1ccc(OCc2ccc3ccccc3n2)cc1[C@]1(c2cc(F)cc(F)c2)C[C@H]2CC[C@H]1C2 (racemic) |
| 2.5 nM | 322 nM |  | COC(=O)c1ccc(OCc2ccc3ccccc3n2)cc1[C@]1(c2cccc(OC)c2)C[C@H]2CC[C@H]1C2 (racemic) |
| 5.8 nM | 2160 nM |  | O=C(Nc1cccnc1)c1ccc(OCc2ccc3ccccc3n2)cc1[C@]1(c2ccccc2)C[C@H]2CC[C@H]1C2 (racemic) |
| 1.1 nM | 753 nM |  | S=c1[nH]nc(-c2ccc(OCc3ccc4ccccc4n3)cc2[C@]2(c3ccccc3)C[C@H]3CC[C@H]2C3)o1 (racemic) |
| 2.9 nM | 376 nM |  | c1ccc([C@@]2(c3cc(OCc4ccc5ccccc5n4)ccc3-c3nnco3)C[C@H]3CC[C@H]2C3)cc1 (racemic) |
| 3.6 nM | 834 nM | clearance [3]: 71 mL/min/kg; Vd [4]: 7.5 L/kg; AUC/dose (Rattus norvegicus): 0.05 µM·kg·h/mg; Cmax [5]: 10 nM; half-life [6]: 1.7 h; bioavailability [7]: 9% | CC1(C)CC(c2ccccc2)(c2cc(OCc3ccc4ccccc4n3)ccc2-c2n[nH]c(=O)o2)C1 |
| 4 nM | 1600 nM |  | COC(=O)c1ccc(OCc2ccc3ccccc3n2)cc1[C@]1(c2ccccc2F)C[C@H]2CC[C@H]1C2 (racemic) |
| 48 nM | 964 nM |  | O=C(NC1CCCC1)c1ccc(OCc2ccc3ccccc3n2)cc1[C@]1(c2ccccc2)C[C@H]2CC[C@H]1C2 (racemic) |
| 20 nM | > 7000 nM |  | COC(=O)c1ccc(OCc2ccc3ccccc3n2)cc1C1(c2ccccc2)CCC1 |
| 2.4 nM | 177 nM |  | CCn1nnc(-c2ccc(OCc3ccc4ccccc4n3)cc2[C@]2(c3ccccc3)C[C@H]3CC[C@H]2C3)n1 (racemic) |
| 1.6 nM | 189 nM |  | Cc1nc(-c2ccc(OCc3ccc4ccccc4n3)cc2[C@]2(c3ccccc3)C[C@H]3CC[C@H]2C3)no1 (racemic) |
| 5.5 nM | 670 nM |  | COC(=O)c1ccc(OCc2ccc3ccccc3n2)cc1C(c1ccccc1)C(C)(C)C (racemic) |
| 6.3 nM | 1020 nM |  | Cc1noc(-c2ccc(OCc3ccc4ccccc4n3)cc2[C@]2(c3ccccc3)C[C@H]3CC[C@H]2C3)n1 (racemic) |
| 5.4 nM | 721 nM |  | c1ccc([C@@]2(c3cc(OCc4ccc5ccccc5n4)ccc3-c3ncon3)C[C@H]3CC[C@H]2C3)cc1 (racemic) |
| 2.5 nM | 796 nM |  | O=c1[nH]nc(-c2ccc(OCc3ccc4ccccc4n3)cc2[C@]2(c3ccccc3)C[C@H]3CC[C@H]2C3)o1 (racemic) |
| 96 nM | > 9000 nM |  | CCC(CC)(c1ccccc1)c1cc(OCc2ccc3ccccc3n2)ccc1C(=O)OC |
| 5.6 nM | 1300 nM |  | COC(=O)c1ccc(OCc2ccc3ccccc3n2)cc1C1(c2ccccc2)C2CCC1CC2 (centres undefined) |

| IC50 [1] | IC50 [2] | other results | SMILES |
| --- | --- | --- | --- |
| 1.9 nM | 534 nM | clearance [3]: 29 mL/min/kg; Vd [4]: 5.3 L/kg; AUC/dose (Rattus norvegicus): 0.34 µM·kg·h/mg; Cmax [5]: 250 nM; half-life [6]: 4.3 h; bioavailability [7]: 27% | CC(C)(C)[C@@H](c1ccccc1)c1cc(OCc2ccc3ccccc3n2)ccc1-c1n[nH]c(=O)o1 |
| 8.5 nM | 3700 nM |  | COC(=O)c1ccc(OCc2ccc3ccccc3n2)cc1C1(c2ccccc2)CCCC1 |
| 2.2 nM | 258 nM |  | Nc1nnc(-c2ccc(OCc3ccc4ccccc4n3)cc2[C@]2(c3ccccc3)C[C@H]3CC[C@H]2C3)o1 (racemic) |
| 9.5 nM | 1400 nM |  | COC(=O)c1ccc(OCc2ccc3ccccc3n2)cc1[C@]1(c2ccc(F)cc2)C[C@H]2CC[C@H]1C2 (racemic) |
| 0.8 nM | 469 nM | clearance [3]: 7.3 mL/min/kg; Vd [4]: 1 L/kg; AUC/dose (Rattus norvegicus): 0.58 µM·kg·h/mg; Cmax [5]: 400 nM; half-life [6]: 1 h; bioavailability [7]: 12% | O=c1[nH]nc(-c2ccc(OCc3ccc4ccccc4n3)cc2[C@@]2(c3ccccc3)C[C@H]3CC[C@H]2C3)o1 |
| 2.6 nM | 695 nM | clearance [3]: 32 mL/min/kg; Vd [4]: 3.1 L/kg; AUC/dose (Rattus norvegicus): 0.19 µM·kg·h/mg; Cmax [5]: 120 nM; half-life [6]: 2 h; bioavailability [7]: 17% | CC1CC(c2ccccc2)(c2cc(OCc3ccc4ccccc4n3)ccc2-c2n[nH]c(=O)o2)C1 (mixture of isomers) |
| 15 nM | 1560 nM |  | COC(=O)c1ccc(OCc2ccc3ccccc3n2)cc1C1(c2ccccc2)CCCCC1 |
| 3.5 nM | 2300 nM |  | COC(=O)c1ccc(OCc2ccc3ccccc3n2)cc1[C@]1(c2cc(C)cc(C)c2)C[C@H]2CC[C@H]1C2 (racemic) |
| 5.5 nM | 940 nM |  | COC(=O)c1ccc(OCc2ccc3ccccc3n2)cc1[C@]1(c2cccc(C)c2)C[C@H]2CC[C@H]1C2 (racemic) |
| 5.2 nM | 1400 nM |  | COC(=O)c1ccc(OCc2ccc3ccccc3n2)cc1C1(c2ccccc2)CC(C)(C)C1 |
| 2.1 nM | 460 nM |  | COC(=O)c1ccc(OCc2ccc3ccccc3n2)cc1[C@]1(c2ccccc2)C[C@H]2CC[C@H]1C2 (racemic) |
| 2.9 nM | 5720 nM |  | c1ccc([C@@]2(c3cc(OCc4ccc5ccccc5n4)ccc3-c3nnn[nH]3)C[C@H]3CC[C@H]2C3)cc1 (racemic) |
| 50 nM | > 9000 nM |  | COC(=O)c1ccc(OCc2ccc3ccccc3n2)cc1C1(c2ccccc2)CC(F)(F)C1 |
| 1.1 nM | 375 nM | clearance [3]: 7.2 mL/min/kg; Vd [4]: 0.7 L/kg; AUC/dose (Rattus norvegicus): 0.79 µM·kg·h/mg; Cmax [5]: 670 nM; half-life [6]: 1.2 h; bioavailability [7]: 17% | COc1cccc([C@]2(c3cc(OCc4ccc5ccccc5n4)ccc3-c3n[nH]c(=O)o3)C[C@H]3CC[C@H]2C3)c1 |
| 2.4 nM | 502 nM |  | FC(F)n1nnc(-c2ccc(OCc3ccc4ccccc4n3)cc2[C@]2(c3ccccc3)C[C@H]3CC[C@H]2C3)n1 (racemic) |
| 2.3 nM | 472 nM |  | COC(=O)c1ccc(OCc2ccc3ccccc3n2)cc1[C@]1(c2cccc(F)c2)C[C@H]2CC[C@H]1C2 (racemic) |
| 5 nM | 456 nM |  | Cc1nnc(-c2ccc(OCc3ccc4ccccc4n3)cc2[C@]2(c3ccccc3)C[C@H]3CC[C@H]2C3)o1 (racemic) |
| 16 nM | > 9000 nM |  | COC(=O)c1ccc(OCc2ccc3ccccc3n2)cc1C(c1ccccc1)C1CCCCC1 (racemic) |
| 3 nM | 2000 nM |  | COC(=O)c1ccc(OCc2ccc3ccccc3n2)cc1C(CC(C)(C)C)c1ccccc1 (racemic) |
| 58 nM | > 9000 nM |  | COC(=O)c1ccc(OCc2ccc3ccccc3n2)cc1C(C)(C)c1ccccc1 |
| 3.2 nM | 1100 nM |  | COC(=O)c1ccc(OCc2ccc3ccccc3n2)cc1C1(c2ccccc2)CC(C)C1 (centres undefined) |

Source: ChEMBL document CHEMBL2029294, “Evaluation of endo- and exo-aryl-substitutions and central scaffold modifications on diphenyl substituted alkanes as 5-lipoxygenase activating protein inhibitors” (Bioorg Med Chem Lett, 2012)
